Experiment [1] concerns the target T1, CNGA1 channel (bovine CNGA1, bCNGA1) (Bos taurus, UniProt Q00194).
T1 sequence (Q00194 1-690): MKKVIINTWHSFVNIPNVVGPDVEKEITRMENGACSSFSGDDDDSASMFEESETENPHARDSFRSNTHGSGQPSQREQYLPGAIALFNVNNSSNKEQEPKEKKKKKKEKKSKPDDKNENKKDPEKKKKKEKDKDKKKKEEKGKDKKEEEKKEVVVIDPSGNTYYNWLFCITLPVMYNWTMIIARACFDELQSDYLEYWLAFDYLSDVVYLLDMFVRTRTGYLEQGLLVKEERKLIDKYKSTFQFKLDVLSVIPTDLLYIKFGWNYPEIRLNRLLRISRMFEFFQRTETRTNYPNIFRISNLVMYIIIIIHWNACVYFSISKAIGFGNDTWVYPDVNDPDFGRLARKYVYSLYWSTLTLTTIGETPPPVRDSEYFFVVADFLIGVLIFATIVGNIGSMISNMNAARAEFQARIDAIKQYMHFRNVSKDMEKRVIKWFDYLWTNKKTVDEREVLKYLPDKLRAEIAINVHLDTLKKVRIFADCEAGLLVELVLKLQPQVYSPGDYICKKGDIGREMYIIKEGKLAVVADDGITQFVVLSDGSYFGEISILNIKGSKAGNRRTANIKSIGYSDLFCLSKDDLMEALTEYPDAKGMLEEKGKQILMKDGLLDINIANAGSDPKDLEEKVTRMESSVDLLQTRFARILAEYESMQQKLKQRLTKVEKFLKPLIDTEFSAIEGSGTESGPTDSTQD
Description: cell-based.

Another experiment addresses NaK2CNG-E chimera. Description: crystal structure; sitting drop vapor diffusion at 20°C, 40-44% MPD, 100 mM MES pH 6.5, 25 mM glycine; protein purified in DM with DMA·HCl; space group P222_(1); tetramers AABB and CCDD built by two-fold crystallographic symmetry.
Experiment [2] has as its target T1, CNGA1 channel (bovine CNGA1, bCNGA1). Description: excised-patch voltage clamp; current activation. The format is biochemical. On the set-up: full-length CNGA1 expressed alone from cRNA in Xenopus laevis oocytes; excised patches. The following applies: agonist at 1 mM; DMA as charge carrier; pH 7.4.

Take `CNC` [DMA, dimethylammonium]: the dissociation constant (Kd) in experiment [1] came out at 52 mM.

For NaK2CNG-E chimera, in the experiment with NaK2CNG-E chimera, the stoichiometry N was found to be 4.

With `Nc1nc2c(ncn2[C@@H]2O[C@@H]3COP(=O)(O)O[C@H]3[C@H]2O)c(=O)[nH]1` [cGMP], the “excised-patch voltage clamp; current activation” value in experiment [2] is on record as “The cGMP activated current was measured as the difference between the current recorded in the presence”.
